Source: PMC5447332 (Targeted Oncology, 2017)
Several values for one entry are separate records, joined by “and”; a condition that tells them apart may be missing. Equal entries are not always repeated. Entries after “also recorded” stand apart in the source; their conditions may differ. Where two headings read alike, the source gives them in different places.

Key:
[1] = Pharmacokinetics of BEZ235 in plasma, phase Ib combination with everolimus; format: in vivo, human (patients with advanced solid tumors); settings: for Apparent clearance, CL/F / Cmax / Dose / half-life / AUC(0-t) / AUC(0-inf) / Cmax / Tmax: plasma; for half-life / AUC(0-t) / AUC(0-inf) / Cmax / Tmax: human
[2] = BEZ235 200 mg twice daily; cited from earlier work
[3] = preclinical studies; ref not given; cited from earlier work
[4] = Pharmacokinetics of everolimus in whole blood when co-administered with BEZ235; format: in vivo, human (patients with advanced solid tumors)
[5] = cited from earlier work
[6] = whole blood; ref not given; cited from earlier work
[7] = BEZ235 200 mg/d + everolimus 2.5 mg/d oral, day 1, mean ± SE
[8] = BEZ235 200 mg/d + everolimus 2.5 mg/d oral, day 28, mean ± SE
[9] = BEZ235 400 mg/d + everolimus 2.5 mg/d oral, day 1, mean ± SE
[10] = BEZ235 400 mg/d + everolimus 2.5 mg/d oral, day 28, mean ± SE
[11] = BEZ235 800 mg/d + everolimus 2.5 mg/d oral, day 1, mean ± SE
[12] = BEZ235 800 mg/d + everolimus 2.5 mg/d oral, day 28, mean ± SE
[13] = po, BEZ235 200 mg/d + everolimus 2.5 mg/d oral, day 1, mean ± SE
[14] = po, BEZ235 200 mg/d + everolimus 2.5 mg/d oral, day 28, mean ± SE
[15] = po, BEZ235 400 mg/d + everolimus 2.5 mg/d oral, day 1, mean ± SE
[16] = po, BEZ235 400 mg/d + everolimus 2.5 mg/d oral, day 28, mean ± SE
[17] = po, BEZ235 800 mg/d + everolimus 2.5 mg/d oral, day 1, mean ± SE
[18] = po, BEZ235 800 mg/d + everolimus 2.5 mg/d oral, day 28, mean ± SE
[19] = everolimus 2.5 mg/d oral + BEZ235 200-800 mg/d, day 1, whole blood, mean ± SE

**Q.** With `Cn1c(=O)n(-c2ccc(C(C)(C)C#N)cc2)c2c3cc(-c4cnc5ccccc5c4)ccc3ncc21` [BEZ235, dactolisib] as the compound, how does the “Apparent clearance, CL/F” value [1, 7] read?
**A.** 629.6 ± 278.1 L/h

**Q.** And the “Cmax / Dose” value [1, 7]?
**A.** 0.2 ng/mL/mg and 0.2 ± 0.1 ng/mL/mg

**Q.** What about the “Apparent clearance, CL/F” value [1, 8] of the same compound?
**A.** 116.3 ± 24.4 L/h

**Q.** What about the “Cmax / Dose” value [1, 8] of the same compound?
**A.** 1.1 ± 0.6 ng/mL/mg

**Q.** What about the “Apparent clearance, CL/F” value [1, 9] of the same compound?
**A.** 644.3 ± 192.9 L/h

**Q.** What about the “Cmax / Dose” value [1, 9] of the same compound?
**A.** 0.3 ng/mL/mg and 0.3 ± 0.1 ng/mL/mg

**Q.** And the “Apparent clearance, CL/F” value [1, 10]?
**A.** 309.3 ± 241.3 L/h

**Q.** And the “Cmax / Dose” value [1, 10]?
**A.** 0.6 ± 0.5 ng/mL/mg

**Q.** What about the “Apparent clearance, CL/F” value [1, 11] of the same compound?
**A.** 773.9 ± 262.1 L/h

**Q.** What about the “Cmax / Dose” value [1, 11] of the same compound?
**A.** 0.3 ng/mL/mg and 0.3 ± 0.1 ng/mL/mg

**Q.** And the “Apparent clearance, CL/F” value [1, 12]?
**A.** 355.9 ± 246.6 L/h

**Q.** What about the “Cmax / Dose” value [1, 12] of the same compound?
**A.** 1.1 ± 0.7 ng/mL/mg

**Q.** What about the “Drug levels at steady state relative to single dose administration” value ([1]; BEZ235 200-800 mg) of the same compound?
**A.** ~3 fold

**Q.** What about the half-life ([1]; oral, Steady-state half-life, range over 200-800 mg/day) of the same compound?
**A.** 900 to 2580 min

**Q.** And the AUC(0-t) ([1]; po, AUC 0-24, BEZ235 200 mg/d + everolimus 2.5 mg/d oral, day 1, mean ± SE)?
**A.** 433 ± 96 ng·h/mL

**Q.** And the AUC(0-t) ([1]; po, AUC 0-24, BEZ235 200 mg/d + everolimus 2.5 mg/d oral, day 28, mean ± SE)?
**A.** 1470 ± 515 ng·h/mL

**Q.** And the AUC(0-t) ([1]; po, AUC 0-24, BEZ235 400 mg/d + everolimus 2.5 mg/d oral, day 1, mean ± SE)?
**A.** 741 ± 171 ng·h/mL

**Q.** What about the AUC(0-t) ([1]; po, AUC 0-24, BEZ235 400 mg/d + everolimus 2.5 mg/d oral, day 28, mean ± SE) of the same compound?
**A.** 1460 ± 1250 ng·h/mL

**Q.** And the AUC(0-t) ([1]; po, AUC 0-24, BEZ235 800 mg/d + everolimus 2.5 mg/d oral, day 1, mean ± SE)?
**A.** 2080 ± 666 ng·h/mL

**Q.** What about the AUC(0-t) ([1]; po, AUC 0-24, BEZ235 800 mg/d + everolimus 2.5 mg/d oral, day 28, mean ± SE) of the same compound?
**A.** 7800 ± 5610 ng·h/mL

**Q.** What about the AUC(0-inf) [1, 13] of the same compound?
**A.** 468 ± 118 ng·h/mL

**Q.** And the AUC(0-inf) [1, 14]?
**A.** 1490 ± 691 ng·h/mL

**Q.** And the AUC(0-inf) [1, 15]?
**A.** 831 ± 163 ng·h/mL

**Q.** What about the AUC(0-inf) [1, 16] of the same compound?
**A.** 2710 ± 2340 ng·h/mL

**Q.** And the AUC(0-inf) [1, 17]?
**A.** 2170 ± 675 ng·h/mL

**Q.** And the AUC(0-inf) [1, 18]?
**A.** 8880 ± 6590 ng·h/mL

**Q.** What about the Cmax [1, 13] of the same compound?
**A.** 45.2 ± 11.4 ng/mL

**Q.** What about the Cmax [1, 14] of the same compound?
**A.** 214 ± 114 ng/mL

**Q.** And the Cmax [1, 15]?
**A.** 102 ± 22.4 ng/mL

**Q.** And the Cmax [1, 16]?
**A.** 227 ± 198 ng/mL

**Q.** And the Cmax [1, 17]?
**A.** 243 ± 52.7 ng/mL

**Q.** And the Cmax [1, 18]?
**A.** 880 ± 570 ng/mL

**Q.** What about the half-life ([1]; po, Terminal half-life, BEZ235 200 mg/d + everolimus 2.5 mg/d oral, day 1, mean ± SE) of the same compound?
**A.** 192 ± 60 min

**Q.** What about the half-life ([1]; po, Terminal half-life, BEZ235 200 mg/d + everolimus 2.5 mg/d oral, day 28 (steady state), mean ± SE) of the same compound?
**A.** 1150 ± 150 min

**Q.** And the half-life ([1]; po, Terminal half-life, BEZ235 400 mg/d + everolimus 2.5 mg/d oral, day 1, mean ± SE)?
**A.** 516 ± 90 min

**Q.** What about the half-life ([1]; po, Terminal half-life, BEZ235 400 mg/d + everolimus 2.5 mg/d oral, day 28 (steady state), mean ± SE) of the same compound?
**A.** 2600 ± 648 min

**Q.** And the half-life ([1]; po, Terminal half-life, BEZ235 800 mg/d + everolimus 2.5 mg/d oral, day 1, mean ± SE)?
**A.** 354 ± 42 min

**Q.** What about the half-life ([1]; po, Terminal half-life, BEZ235 800 mg/d + everolimus 2.5 mg/d oral, day 28 (steady state), mean ± SE) of the same compound?
**A.** 900 ± 384 min

**Q.** What about the Tmax [1, 13] of the same compound?
**A.** 3.8 ± 1.6 h

**Q.** What about the Tmax [1, 14] of the same compound?
**A.** 2.7 ± 0.7 h

**Q.** What about the Tmax [1, 15] of the same compound?
**A.** 2.5 ± 0.9 h

**Q.** And the Tmax [1, 16]?
**A.** 1.5 ± 0.5 h

**Q.** And the Tmax [1, 17]?
**A.** 2.6 ± 0.8 h

**Q.** What about the Tmax [1, 18] of the same compound?
**A.** 2 h

**Q.** What about the “Accumulation higher than anticipated” value ([1]; multiple dosing, day 28) of the same compound?
**A.** 2–3 fold

**Q.** And the “Oral bioavailability (oral availability)” value ([1]; patients, SDS sachet, this study)?
**A.** quite low; also recorded: remained low

**Q.** What about the Average plasma concentration ([1]; steady state, doses of 200 to 800 mg/day) of the same compound?
**A.** 61 to 324 ng/mL

**Q.** What about the AUC0-24 [2] of the same compound?
**A.** 752.9 ng·h/mL

**Q.** What about the Aqueous solubility [3] of the same compound?
**A.** poor

**Q.** With `CO[C@H]1C[C@@H]2CC[C@@H](C)[C@@](O)(O2)C(=O)C(=O)N2CCCC[C@H]2C(=O)O[C@H]([C@H](C)C[C@@H]2CC[C@@H](OCCO)[C@H](OC)C2)CC(=O)[C@H](C)/C=C(\C)[C@@H](O)[C@@H](OC)C(=O)[C@H](C)C[C@H](C)/C=C/C=C/C=C/1C` [Everolimus, everolimus] as the compound, how does the “Increase in dose-normalized AUC0-24 (exposure), combination with BEZ235 compared to everolimus alone” value ([4]; everolimus 2.5 mg/d + BEZ235 vs reported everolimus alone (ref 23)) read?
**A.** 1.7 fold

**Q.** And the “Apparent clearance, CL/F” value [4, 19]?
**A.** 24.76 ± 2.91 L/h

**Q.** What about the “Cmax / Dose” value [4, 19] of the same compound?
**A.** 5.63 ± 0.6 ng/mL/mg

**Q.** And the “Cmax / Dose” value ([4]; everolimus 2.5 mg/d oral + BEZ235 200-800 mg/d, day 28, whole blood, mean ± SE)?
**A.** 12.67 ± 2.96 ng/mL/mg

**Q.** What about the Reported everolimus clearance ([5]; 5 mg dosed alone) of the same compound?
**A.** 21.3 L/h

**Q.** What about the Reported everolimus clearance ([5]; 10 mg dosed alone) of the same compound?
**A.** 27.3 L/h

**Q.** What about the “Median Tmax” value ([5]; everolimus after oral administration, ref not given) of the same compound?
**A.** 1 to 2 h

**Q.** And the “Dose-normalized Cmax” value ([5]; everolimus dosed alone, cancer patients)?
**A.** 6.3 ng/mL

**Q.** And the Oral bioavailability ([5]; everolimus, ref not given)?
**A.** low

**Q.** What about the Binding to erythrocytes [6] of the same compound?
**A.** 85%
